Assay results as given in patent EP4617282A1, “MEMBRANE FUSION INHIBITOR FOR […] VIRUS AND DRUG-RESISTANT STRAIN THEREOF, AND PHARMACEUTICAL USE THEREOF” (Institute Of Pathogen Biology, Chinese Academy Of Medical …, priority 2022, dated 2024).
Residues, ends and D or L forms follow the SMILES beside them. *: point of attachment. Succinyl(4-O-cholesteryl) = CC(C)CCC[C@@H](C)[C@H]1CC[C@H]2[C@@H]3CC=C4C[C@@H](OC(=O)CCC(=O)*)CC[C@]4(C)[C@H]3CC[C@]12C

What was measured:
HIV-1NL4-3 pseudovirus = type: cell-based; settings: TZM-b1 cells, 100 TCID50, 48 hours
Description: (§1) HIV-1JRFL Env expression vectors and backbone plasmas (pSG3 ΔEnv) and TZM-bl cells were described in the following literature: Xue, J., Chong, H., Zhu, Y, Zhang, J., Tong, L., Lu, J., Chen, T., Cong, Z., Wei, Q., He, Y., 2022. Efficient treatment and pre-exposure prophylaxis in rhesus macaques by an HIV fusion-inhibitory lipopeptide. Cell 185, 131-144 e118. The HIV-1JRFL Env expression vector and the backbone plasmas (pSG3 ΔEnv) were co-transfected into HEK293T cells, and the transfected cells were cultured in a cell culture incubator at 37 °C and 5% CO2 for 48 hours, and then the supernatant was collected and filtered to collect the filtrate. The resulting filtrate was a virus solution containing HIV-1JRFL pseudovirus particles (called as HIV-1JRFL virus solution), which was preserved at -80 °C for later use.
The preparation method of the HIV-1NL4-3 virus solution (i.e., the virus solution containing HIV-1NL4-3 pseudovirus particle) was basically the same as that of the HIV-1JRFL virus liquid, except that the HIV-1JRFL Env expression vector was replaced with HIV-1NL4-3 Env expression vector. […]
Test virus solution: HIV-1NL4-3 virus solution or HIV-1JRFL virus solution. • 1. […] Relative luminescence units (RLU) were measured by a microplate luminometer, an inhibition rate curve was made, and the half-maximal inhibition concentration (IC50) of the drug was calculated. […]

HIV-1JRFL pseudovirus = type: cell-based; settings: TZM-b1 cells, 100 TCID50, 48 hours
Description: as §1
Test virus solution: HIV-1NL4-3 virus solution or HIV-1JRFL virus solution. • 1. A test lipopeptide was dissolved in deionized water and then diluted with DMEM medium (using 3-fold dilution) to obtain a lipopeptide diluent. 9 dilutions were set for each test lipopeptide. • 2. In a 96-well plate, the lipopeptide diluent (50 µL/well) was added to drug wells and the DMEM medium (50 µL/well) was added to control wells. Each well was set with three duplicate wells. • 3. After step 2 was finished, a test virus solution (50 µL/well, a virus content of 100 TCID50) was added to the 96-well plate and incubated at room temperature for 30 minutes. • 4. After step 3 was finished, a TZM-b1 cell suspension (100 µL/well) was added to the 96-well plate and cultured for 48 hours in a cell culture incubator at 37 °C and 5% CO2. Preparation method of the TZM-b1 cell suspension: TZM-b1 cells were re-suspended in a DMEM medium and DEAE-dextran was added thereto such that the cell concentration was 10×10^4 cells/mL and the DEAE-dextran concentration was 15 µg/mL. • 5. […] Relative luminescence units (RLU) were measured by a microplate luminometer, an inhibition rate curve was made, and the half-maximal inhibition concentration (IC50) of the drug was calculated. […]

CC[C@H](C)[C@H](NC(=O)[C@H](CCCCN)NC(=O)[C@H](CCC(N)=O)NC(=O)[C@H](CCC(=O)O)NC(=O)[C@H](Cc1ccc(O)cc1)NC(C)=O)C(=O)N[C@@H](CCC(=O)O)C(=O)N[C@@H](CCC(=O)O)C(=O)N[C@@H](CC(C)C)C(=O)N[C@@H](CC(C)C)C(=O)N[C@@H](CCCCN)C(=O)N[C@@H](CCCCN)C(=O)N[C@@H](C)C(=O)N[C@@H](CCC(=O)O)C(=O)N[C@@H](CCC(=O)O)C(=O)N[C@@H](CCC(N)=O)C(=O)N[C@@H](CCC(N)=O)C(=O)N[C@@H](CCCCN)C(=O)N[C@@H](CCCCN)C(=O)N[C@@H](CC(N)=O)C(=O)N[C@@H](CCC(=O)O)C(=O)N[C@@H](CCC(=O)O)C(=O)N[C@@H](CCC(=O)O)C(=O)N[C@@H](CC(C)C)C(=O)N[C@@H](CCCCN)C(=O)N[C@@H](CCCCN)C(=O)N[C@@H](CC(C)C)C(=O)N[C@@H](CCC(=O)O)C(=O)N[C@@H](CCCCNC(=O)CCC(=O)O[C@H]1CC[C@@]2(C)C(=CC[C@H]3[C@@H]4CC[C@H]([C@H](C)CCCC(C)C)[C@@]4(C)CC[C@@H]32)C1)C(N)=O [LP-98, reference compound] (Ac-YEQKIEELLKKAEEQQKKNEEELKKLEK(Succinyl(4-O-cholesteryl))-NH2)
IC50 (HIV-1NL4-3 pseudovirus): 1.07 pM | IC50 (HIV-1JRFL pseudovirus): 2.58 pM

CC[C@H](C)[C@H](NC(=O)[C@H](CCCCN)NC(=O)[C@H](CCCCN)NC(=O)[C@H](CCC(=O)O)NC(=O)[C@H](Cc1c[nH]c2ccccc12)NC(=O)[C@H](CCC(=O)O)NC(=O)[C@H](CCC(=O)O)NC(=O)[C@H](Cc1c[nH]c2ccccc12)NC(C)=O)C(=O)N[C@@H](CCC(=O)O)C(=O)N[C@@H](CCC(=O)O)C(=O)N[C@@H](CC(C)C)C(=O)N[C@@H](CCC(=O)O)C(=O)N[C@@H](CCCCN)C(=O)N[C@@H](CCCCN)C(=O)N[C@H](C(=O)N[C@@H](CCC(=O)O)C(=O)N[C@@H](CCC(=O)O)C(=O)N[C@@H](CC(C)C)C(=O)N[C@@H](CC(C)C)C(=O)N[C@@H](CCCCN)C(=O)N[C@@H](CCCCN)C(=O)N[C@@H](C)C(=O)N[C@@H](CCC(=O)O)C(=O)N[C@@H](CCC(=O)O)C(=O)N[C@@H](CCC(N)=O)C(=O)N[C@@H](CCC(N)=O)C(=O)N[C@@H](CCCCN)C(=O)N[C@@H](CCCCN)C(=O)N[C@@H](CC(N)=O)C(=O)N[C@@H](CCC(=O)O)C(=O)N[C@@H](CCC(=O)O)C(=O)N[C@@H](CCC(=O)O)C(=O)N[C@@H](CC(C)C)C(=O)N[C@@H](CCCCN)C(=O)N[C@@H](CCCCN)C(=O)N[C@@H](CC(C)C)C(=O)N[C@@H](CCC(=O)O)C(=O)N[C@@H](CCCCNC(=O)CCC(=O)O[C@H]1CC[C@@]2(C)C(=CC[C@H]3[C@@H]4CC[C@H]([C@H](C)CCCC(C)C)[C@@]4(C)CC[C@@H]32)C1)C(N)=O)[C@@H](C)CC [LP-104] (Ac-WEEWEKKIEELEKKIEELLKKAEEQQKKNEEELKKLEK(Succinyl(4-O-cholesteryl))-NH2)
IC50 (HIV-1NL4-3 pseudovirus): 14.5 pM | IC50 (HIV-1JRFL pseudovirus): 60.2 pM

CC[C@H](C)[C@H](NC(=O)[C@H](CCC(=O)O)NC(C)=O)C(=O)N[C@@H](CCC(=O)O)C(=O)N[C@@H](CCC(=O)O)C(=O)N[C@@H](CC(C)C)C(=O)N[C@@H](CCC(=O)O)C(=O)N[C@@H](CCCCN)C(=O)N[C@@H](CCCCN)C(=O)N[C@H](C(=O)N[C@@H](CCC(=O)O)C(=O)N[C@@H](CCC(=O)O)C(=O)N[C@@H](CC(C)C)C(=O)N[C@@H](CC(C)C)C(=O)N[C@@H](CCCCN)C(=O)N[C@@H](CCCCN)C(=O)N[C@@H](C)C(=O)N[C@@H](CCC(=O)O)C(=O)N[C@@H](CCC(=O)O)C(=O)N[C@@H](CCC(N)=O)C(=O)N[C@@H](CCC(N)=O)C(=O)N[C@@H](CCCCN)C(=O)N[C@@H](CCCCN)C(=O)N[C@@H](CC(N)=O)C(=O)N[C@@H](CCC(=O)O)C(=O)N[C@@H](CCC(=O)O)C(=O)N[C@@H](CCC(=O)O)C(=O)N[C@@H](CC(C)C)C(=O)N[C@@H](CCCCN)C(=O)N[C@@H](CCCCN)C(=O)N[C@@H](CC(C)C)C(=O)N[C@@H](CCC(=O)O)C(=O)N[C@@H](CCCCNC(=O)CCC(=O)O[C@H]1CC[C@@]2(C)C(=CC[C@H]3[C@@H]4CC[C@H]([C@H](C)CCCC(C)C)[C@@]4(C)CC[C@@H]32)C1)C(N)=O)[C@@H](C)CC [LP-101] (Ac-EIEELEKKIEELLKKAEEQQKKNEEELKKLEK(Succinyl(4-O-cholesteryl))-NH2)
IC50 (HIV-1JRFL pseudovirus): 2.26 pM
